This series deals with FATZO mice (NASH). As to the kind of experiment: FATZO mouse western diet + fructose NASH model (Example 6): body and liver weight, liver histology, NAS, fibrosis, Sirius Red. The class given is in vivo. The note with it: WDF-fed FATZO mice. The source says:
In one example, the effects of […] and related amino acid compositions in the obesity, metabolism-driven non-alcoholic steatohepatitis (NASH) in FATZO mouse model was examined.
NASH was induced in 60 male FATZO mice by a western diet (Research Diet #D12079B; fat 40% kcal, protein 17% kcal, carbohydrate 43% kcal) supplemented with 5% fructose in the drinking water (WDF) during a 16 week induction phase. Diets and water were available ad libitum. Littermate control male FATZO mice fed with a control diet (n=6, Purina #5008; fat 17% kcal, protein 27% kcal, carbohydrate 56% kcal) and sterile water were set up for control purpose. Mice were housed in plastic cages with microisolator. Sterilized bedding was replaced once a week. Mice were housed three per cage and maintained on a twelve hour light cycle throughout study duration. Room temperature was monitored daily and maintained at 22-25° C. Body weight was recorded every week during the induction phase.
Following 16 weeks diet induction, 6 mice remained on control diet (group 1, Control) while 60 induced mice were randomized on body weight and plasma glucose (fed) for assignment to the following treatments. FATZO mice were administered with test articles starting at 16 weeks post western diet NASH induction for 4 weeks. Test articles were administered by oral gavage. Animals were euthanized at 20 weeks post western diet NASH induction, and tissues were harvested for analysis.
[…], […]+G, LRQNAC, and OCA (Advanced ChemBlocks, Inc.), incipient, and water for irrigation were provided by Axcella Health, Inc. 0.5% Methylcellulose was provided by CrownBio, Inc. Dosing solutions were prepared according to Appendix 1. […] Obeticholic acid (OCA) was suspended in 0.5% methylcellulose in water for irrigation. All test articles were stored refrigerated. TA compounds were provided in frozen powder form by the sponsor. Dosing was continued for 4 weeks.
Leucine dosages of […]+G and LRQNAC were matched to that of […].
[…], […]+G, LRQNAC, OCA and Vehicle were administered by oral gavage at a volume of 10 mL/kg throughout the study. Dosages were calculated by daily body weight. […], […]+G, LRQNAC, and Vehicle were administered twice per day (BID), while OCA was administered once a day (QD) in the morning. Mice receiving OCA once per day (QD), and one vehicle QD. Doses were administered by oral gavage at 0700 and 1800 by oral gavage for 4 weeks.
The viability, clinical signs and behavior were monitored daily. Body weight was recorded daily during the dosing period. Blood samples were collected weekly in the AM (0700) via tail clip for glucose measurement (StatStrip glucometer).
Animals were anesthetized with CO2 inhalation and exsanguinated via cardiac puncture for euthanasia. Terminal blood samples (K2EDTA) were obtained by cardiac puncture in anesthetized animals at termination. Samples were provided frozen to Axcella Health. Organ weights (total liver, gonadal fat pads) were recorded. Pancreas, and small intestine and gonadal fat pads were fixed in 10% Buffered Formalin and prepared as directed in protocol. A section of small intestine, gonadal fat pad and liver were also snap frozen in liquid nitrogen and shipped to the sponsor.
The liver tissues were fixed in Bouin's solution at 4° C. for 24 hours followed by baths of standard concentrations of alcohol then xylene to prepare the tissues for paraffin embedding. After being embedded in paraffin and cooled, five-micron sections were cut and stained for routine H&E and Picric Sirius Red. A section of both right and left lobes of the livers were frozen in OCT for analysis of lipid content with Oil-Red-) staining. The Aperio whole slide digital imaging system (Scan Scope CS, Vista, Calif.) was used for imaging. All slides were imaged at 20×. The scan time ranged from 1.5 minutes to a maximum time of 2.25 minutes. […]

The mark [1] stands for this setting: OCA oral gavage QD, 4 weeks, mean ± SEM.

For `CC[C@H]1[C@@H](O)[C@@H]2[C@H](CC[C@]3(C)[C@@H]([C@H](C)CCC(=O)O)CC[C@@H]23)[C@@]2(C)CC[C@@H](O)C[C@@H]12` [OCA, 6α-ethyl-chenodeoxycholic acid], under setting [1], the “Fibrosis (liver fibrosis score)” value amounted to 0.67 ± 0.167, the “Liver Pathology: Inflammation” value is reported as 1.0 ± 0.0, the “Liver Pathology: NAS” value is listed as 3.72 ± 0.147 and the “Sirius Red (collagen staining)” value came out at 1.59 ± 0.36. The “Liver Pathology: Ballooning” value (OCA oral gavage QD, 4 weeks, score 0-2, mean ± SEM) is listed as 0.94 ± 0.056. The “Liver Pathology: Steatosis” value (OCA oral gavage QD, 4 weeks, score 0-3, mean ± SEM) was determined as 1.78 ± 0.147. In addition, the “Body weight change compared to baseline” value (4 weeks oral, LIVRQNAC 3000 mg/kg, LIVRQNAC+G 3885 mg/kg, LRQNAC 2469 mg/kg BID, OCA 30 mg/kg/day QD) is recorded as −3.9±1.5%. The “Liver weight (% body weight)” value (4 weeks, LIVRQNAC 3000 mg/kg, LIVRQNAC+G 3885 mg/kg, LRQNAC 2469 mg/kg, OCA 30 mg/kg/day) is 6.81±0.2 % body weight.

Source of the values: patent US20210275480A1, “COMPOSITIONS AND METHODS FOR THE REDUCTION OR TREATMENT OF FIBROSIS” (AXCELLA HEALTH INC., priority 2018, published 2021).
